Experimental data as given in the supplement of paper PMC10307832.

Key:
Test in all cases: relative viability (nuclei count vs DMSO), 5 days (fraction); higher = more cells survive
CAL-12T = tested on: CAL-12T
Summary of the method: (§1)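 Relative viability was taken as the ratio of nuclei in treated wells to nuclei in vehicle wells. Lung cancer cell lines in 1536-well plates received compounds by pin tool one day after seeding, either one drug alone or a fixed anchor-drug dose plus five library-drug doses (not always all listed) in √10 steps. Nuclei were counted on 4× images after 5 days of treatment, and values are medians of duplicate plates.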

COR-L 105 = tested on: COR-L 105
Summary of the method: as §1

H3255 = tested on: H3255
Summary of the method: as §1

HARA = tested on: HARA
Summary of the method: as §1

HCC-15 = tested on: HCC-15
Summary of the method: as §1

HCC-366 = tested on: HCC-366
Summary of the method: as §1

LC-2-ad = tested on: LC-2-ad
Summary of the method: as §1

LU99A = tested on: LU99A
Summary of the method: as §1

NCI-H1395 = tested on: NCI-H1395
Summary of the method: as §1

NCI-H1563 = tested on: NCI-H1563
Summary of the method: as §1

NCI-H1666 = tested on: NCI-H1666
Summary of the method: as §1

NCI-H1734 = tested on: NCI-H1734
Summary of the method: as §1

NCI-H1944 = tested on: NCI-H1944
Summary of the method: as §1

NCI-H1975 = tested on: NCI-H1975
Summary of the method: as §1

NCI-H1993 = tested on: NCI-H1993
Summary of the method: as §1

NCI-H3122 = tested on: NCI-H3122
Summary of the method: as §1

NCI-H647 = tested on: NCI-H647
Summary of the method: as §1

NCI-H838 = tested on: NCI-H838
Summary of the method: as §1

PC-14 = tested on: PC-14
Summary of the method: as §1

PC-3 [JPC-3] = tested on: PC-3 [JPC-3]
Summary of the method: as §1

SK-LU-1 = tested on: SK-LU-1
Summary of the method: as §1

COCC1(CO)C(=O)C2CCN1CC2 (configuration not stated) [PRIMA-1MET] + C[C@]1(O)C[C@@H](c2nc(-c3ccc4ccc(-c5ccccc5)nc4c3)c3c(N)nccn32)C1 [Linsitinib] (partner 1 µM)
relative viability (CAL-12T; first compound 0.2 µM): 0.725
relative viability (CAL-12T; first compound 0.6325 µM): 0.733
relative viability (CAL-12T; first compound 2 µM): 0.745
relative viability (CAL-12T; first compound 6.325 µM): 0.85
relative viability (CAL-12T; first compound 20 µM): 0.543
relative viability (COR-L 105; first compound 0.2 µM): 0.943
relative viability (COR-L 105; first compound 0.6325 µM): 0.815
relative viability (COR-L 105; first compound 2 µM): 0.823
relative viability (COR-L 105; first compound 6.325 µM): 0.859
relative viability (COR-L 105; first compound 20 µM): 0.168
relative viability (H3255; first compound 0.2 µM): 1.13
relative viability (H3255; first compound 0.6325 µM): 1.01
relative viability (H3255; first compound 2 µM): 0.8
relative viability (H3255; first compound 6.325 µM): 1.01
relative viability (H3255; first compound 20 µM): 0.918
relative viability (HARA; first compound 0.2 µM): 1.16
relative viability (HARA; first compound 0.6325 µM): 0.265
relative viability (HARA; first compound 6.325 µM): 0.903
relative viability (HARA; first compound 20 µM): 0.874
relative viability (HCC-15; first compound 0.2 µM): 0.893
relative viability (HCC-15; first compound 0.6325 µM): 0.544
relative viability (HCC-15; first compound 2 µM): 0.78
relative viability (HCC-15; first compound 6.325 µM): 0.903
relative viability (HCC-15; first compound 20 µM): 0.722
relative viability (HCC-366; first compound 0.2 µM): 0.773
relative viability (HCC-366; first compound 0.6325 µM): 0.566
relative viability (HCC-366; first compound 6.325 µM): 0.636
relative viability (HCC-366; first compound 20 µM): 0.0588
relative viability (LC-2-ad; first compound 0.2 µM): 0.967
relative viability (LC-2-ad; first compound 0.6325 µM): 0.843
relative viability (LC-2-ad; first compound 2 µM): 0.754
relative viability (LC-2-ad; first compound 6.325 µM): 0.858
relative viability (LC-2-ad; first compound 20 µM): 0.598
relative viability (LU99A; first compound 0.2 µM): 0.629
relative viability (LU99A; first compound 0.6325 µM): 0.439
relative viability (LU99A; first compound 2 µM): 0.567
relative viability (LU99A; first compound 6.325 µM): 0.526
relative viability (LU99A; first compound 20 µM): 0.189
relative viability (NCI-H1395; first compound 0.2 µM): 1.1
relative viability (NCI-H1395; first compound 0.6325 µM): 0.909
relative viability (NCI-H1395; first compound 2 µM): 0.958
relative viability (NCI-H1395; first compound 6.325 µM): 1.61
relative viability (NCI-H1395; first compound 20 µM): 0.859
relative viability (NCI-H1563; first compound 0.2 µM): 1.25
relative viability (NCI-H1563; first compound 0.6325 µM): 1.14
relative viability (NCI-H1563; first compound 2 µM): 1.15
relative viability (NCI-H1563; first compound 6.325 µM): 1.23
relative viability (NCI-H1563; first compound 20 µM): 0.368
relative viability (NCI-H1666; first compound 0.2 µM): 0.794
relative viability (NCI-H1666; first compound 0.6325 µM): 0.781
relative viability (NCI-H1666; first compound 2 µM): 0.833
relative viability (NCI-H1666; first compound 6.325 µM): 0.742
relative viability (NCI-H1666; first compound 20 µM): 0.134
relative viability (NCI-H1734; first compound 0.2 µM): 0.972
relative viability (NCI-H1734; first compound 0.6325 µM): 0.808
relative viability (NCI-H1734; first compound 2 µM): 0.824
relative viability (NCI-H1734; first compound 6.325 µM): 0.818
relative viability (NCI-H1734; first compound 20 µM): 0.51
relative viability (NCI-H1944; first compound 0.2 µM): 1.27
relative viability (NCI-H1944; first compound 0.6325 µM): 0.95
relative viability (NCI-H1944; first compound 6.325 µM): 1.27
relative viability (NCI-H1944; first compound 20 µM): 1.17
relative viability (NCI-H1975; first compound 0.2 µM): 1.14
relative viability (NCI-H1975; first compound 0.6325 µM): 0.838
relative viability (NCI-H1975; first compound 2 µM): 0.875
relative viability (NCI-H1975; first compound 6.325 µM): 1
relative viability (NCI-H1975; first compound 20 µM): 0.826
relative viability (NCI-H1993; first compound 0.2 µM): 0.708
relative viability (NCI-H1993; first compound 0.6325 µM): 0.794
relative viability (NCI-H1993; first compound 2 µM): 0.656
relative viability (NCI-H1993; first compound 6.325 µM): 0.725
relative viability (NCI-H1993; first compound 20 µM): 0.757
relative viability (NCI-H3122; first compound 0.2 µM): 0.853
relative viability (NCI-H3122; first compound 0.6325 µM): 0.996
relative viability (NCI-H3122; first compound 2 µM): 1.04
relative viability (NCI-H3122; first compound 6.325 µM): 0.945
relative viability (NCI-H3122; first compound 20 µM): 1.03
relative viability (NCI-H647; first compound 0.2 µM): 1.42
relative viability (NCI-H647; first compound 0.6325 µM): 1.16
relative viability (NCI-H647; first compound 2 µM): 1.18
relative viability (NCI-H647; first compound 6.325 µM): 1.42
relative viability (NCI-H647; first compound 20 µM): 1.18
relative viability (NCI-H838; first compound 0.2 µM): 1.21
relative viability (NCI-H838; first compound 0.6325 µM): 1.02
relative viability (NCI-H838; first compound 2 µM): 1.04
relative viability (NCI-H838; first compound 6.325 µM): 1.14
relative viability (NCI-H838; first compound 20 µM): 1.06
relative viability (PC-14; first compound 0.2 µM): 0.918
relative viability (PC-14; first compound 0.6325 µM): 0.978
relative viability (PC-14; first compound 2 µM): 0.923
relative viability (PC-14; first compound 6.325 µM): 0.987
relative viability (PC-14; first compound 20 µM): 0.927
relative viability (PC-3 [JPC-3]; first compound 0.2 µM): 1
relative viability (PC-3 [JPC-3]; first compound 0.6325 µM): 0.92
relative viability (PC-3 [JPC-3]; first compound 2 µM): 0.979
relative viability (PC-3 [JPC-3]; first compound 6.325 µM): 1.02
relative viability (PC-3 [JPC-3]; first compound 20 µM): 0.91
relative viability (SK-LU-1; first compound 0.2 µM): 1.24
relative viability (SK-LU-1; first compound 0.6325 µM): 1.03
relative viability (SK-LU-1; first compound 2 µM): 1.14
relative viability (SK-LU-1; first compound 6.325 µM): 1.06
relative viability (SK-LU-1; first compound 20 µM): 0.458
